Source: ChEMBL document CHEMBL1201862, “PubChem BioAssay data set” (2004)
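Values below derive from 48-hour exposures of cells grown in 96-well plates, with endpoints linearly interpolated between the two concentrations bracketing the appropriate inhibition level. At the GI50, growth is halved.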 Activity calls are given as the source filed them. No stated cut-off is given here; in the data, active = GI50 up to about 1.1 µM and inactive = higher.

Columns and labels:
Assay in all cases: inhibition of tumour cell growth, NCI panel, 48 h
[1] = tested on: HCC 2998
[2] = tested on: UACC-257
[3] = tested on: A498
[4] = tested on: OVCAR-8
[5] = tested on: NCI/ADR-RES
[6] = tested on: SK-OV-3
[7] = tested on: HT-29
[8] = tested on: HCT-15
[9] = tested on: KM12
[10] = tested on: MDA-MB-435
[11] = tested on: SN12C
[12] = tested on: T47D
[13] = tested on: MCF7
[14] = tested on: NCI-H226
[15] = tested on: LOX IMVI
[16] = tested on: NCI-H23
[17] = tested on: UACC-62
[18] = tested on: SR
[19] = tested on: RPMI-8226
[20] = tested on: SW-620
[21] = tested on: EKVX
[22] = tested on: SF-268
[23] = tested on: TK-10
[24] = tested on: 786-0
[25] = tested on: SK-MEL-5
[26] = tested on: Hs-578T
[27] = tested on: OVCAR-4
[28] = tested on: U-251
[29] = tested on: SK-MEL-2
[30] = tested on: NCI-H522
[31] = tested on: SF-539
[32] = tested on: SNB-19
[33] = tested on: UO-31
[34] = tested on: COLO 205
[35] = tested on: RXF 393
[36] = tested on: HL-60
[37] = tested on: BT-549
[38] = tested on: MOLT-4
[39] = tested on: ACHN
[40] = tested on: K562
[41] = tested on: IGROV-1
[42] = tested on: M14
[43] = tested on: HOP-62
[44] = tested on: Malme-3M
[45] = tested on: HOP-92
[46] = tested on: SNB-75
[47] = tested on: PC-3
[48] = tested on: OVCAR-5
[49] = tested on: HCT-116
[50] = tested on: A549
[51] = tested on: MDA-MB-231
[52] = tested on: SF-295
[53] = tested on: MDA-N
[54] = tested on: NCI-H460
[55] = tested on: SK-MEL-28
[56] = tested on: CAKI-1
[57] = tested on: OVCAR-3
[58] = tested on: CCRF-CEM
[59] = tested on: DU-145

## CC(=O)CCC[C@@H](C)[C@@H]1O[C@H]([C@@]2(C)CCC(=O)O2)C[C@H]2C(CSc3ccccc3)C(=O)O[C@@H]12 (some centres not stated)
[1]
  GI50: 15.3 µM (inactive)
[2]
  GI50: 13.4 µM (inactive)
[3]
  GI50: 27.4 µM (inactive)
[4]
  GI50: 20 µM (inactive)
[5]
  GI50: 17.7 µM (inactive)
[6]
  GI50: 44.7 µM (inactive)
[7]
  GI50: 17 µM (inactive)
[8]
  GI50: 17.3 µM
[9]
  GI50: 15.1 µM (inactive)
[10]
  GI50: 16.1 µM (inactive)
[11]
  GI50: 14.9 µM (inactive)
[12]
  GI50: 17.9 µM (inactive)
[13]
  GI50: 9.55 µM (inactive)
[14]
  GI50: 14.8 µM (inactive)
[15]
  GI50: 12.4 µM (inactive)
[16]
  GI50: 17.9 µM (inactive)
[17]
  GI50: 14.5 µM (inactive)
[18]
  GI50: 6.79 µM (inactive)
[19]
  GI50: 13.3 µM (inactive)
[20]
  GI50: 10.3 µM (inactive)
[21]
  GI50: 9.98 µM (inactive)
[22]
  GI50: 20 µM (inactive)
[23]
  GI50: 12.6 µM (inactive)
[24]
  GI50: 12.9 µM (inactive)
[25]
  GI50: 21.4 µM (inactive)
[26]
  GI50: 12.4 µM (inactive)
[27]
  GI50: 13.2 µM (inactive)
[28]
  GI50: 16.9 µM (inactive)
[29]
  GI50: 17.3 µM (inactive)
[30]
  GI50: 3.6 µM (inactive)
[31]
  GI50: 14.6 µM (inactive)
[32]
  GI50: 33.4 µM (inactive)
[33]
  GI50: 14.2 µM (inactive)
[34]
  GI50: 15.6 µM (inactive)
[35]
  GI50: 4.16 µM (inactive)
[36]
  GI50: 2.42 µM (inactive)
[37]
  GI50: 11.6 µM (inactive)
[38]
  GI50: 2.96 µM (inactive)
[39]
  GI50: 14.3 µM (inactive)
[40]
  GI50: 6.18 µM (inactive)
[41]
  GI50: 9.66 µM (inactive)
[42]
  GI50: 13.3 µM (inactive)
[43]
  GI50: 65.2 µM (inactive)
[44]
  GI50: 8.09 µM (inactive)
[45]
  GI50: 16.3 µM (inactive)
[46]
  GI50: > 40.4 µM (inactive)
[47]
  GI50: 19 µM (inactive)
[48]
  GI50: 15.1 µM (inactive)
[49]
  GI50: 15.6 µM (inactive)
[50]
  GI50: 13.8 µM (inactive)
[51]
  GI50: 18.1 µM (inactive)
[52]
  GI50: 44.1 µM (inactive)
[53]
  GI50: 13.8 µM (inactive)
[54]
  GI50: 20.7 µM (inactive)
[55]
  GI50: 18.7 µM (inactive)
[56]
  GI50: 12.7 µM (inactive)
[57]
  GI50: 13.8 µM (inactive)
[58]
  GI50: 3.3 µM (inactive)
[59]
  GI50: 14.6 µM (inactive)

## CC(=O)OC(=C(C#N)C#N)c1nccnc1C(C)=O
[1]
  GI50: > 20 µM (inactive)
[2]
  GI50: > 20 µM (inactive)
[3]
  GI50: > 20 µM (inactive)
[4]
  GI50: > 20 µM (inactive)
[5]
  GI50: > 20 µM (inactive)
[6]
  GI50: > 20 µM (inactive)
[7]
  GI50: 4.2 µM (inactive)
[8]
  GI50: > 20 µM
[9]
  GI50: 4.98 µM (inactive)
[10]
  GI50: > 20 µM (inactive)
[11]
  GI50: > 20 µM (inactive)
[12]
  GI50: > 20 µM (inactive)
[13]
  GI50: > 20 µM (inactive)
[14]
  GI50: 6.01 µM (inactive)
[15]
  GI50: > 20 µM (inactive)
[16]
  GI50: > 20 µM (inactive)
[17]
  GI50: > 20 µM (inactive)
[18]
  GI50: 18.5 µM (inactive)
[20]
  GI50: > 20 µM (inactive)
[21]
  GI50: > 20 µM (inactive)
[22]
  GI50: 3.59 µM (inactive)
[24]
  GI50: > 20 µM (inactive)
[25]
  GI50: 6.32 µM (inactive)
[26]
  GI50: 4.44 µM (inactive)
[27]
  GI50: > 20 µM (inactive)
[28]
  GI50: 6.07 µM (inactive)
[29]
  GI50: > 20 µM (inactive)
[30]
  GI50: 19.2 µM (inactive)
[31]
  GI50: 7.24 µM (inactive)
[32]
  GI50: > 20 µM (inactive)
[33]
  GI50: > 20 µM (inactive)
[34]
  GI50: 4.55 µM (inactive)
[35]
  GI50: 5.77 µM (inactive)
[36]
  GI50: 7.01 µM (inactive)
[37]
  GI50: 13.3 µM (inactive)
[38]
  GI50: > 20 µM (inactive)
[39]
  GI50: > 20 µM (inactive)
[40]
  GI50: 11 µM (inactive)
[41]
  GI50: > 20 µM (inactive)
[42]
  GI50: 4.8 µM (inactive)
[44]
  GI50: 9.29 µM (inactive)
[45]
  GI50: > 20 µM (inactive)
[46]
  GI50: 3.96 µM (inactive)
[47]
  GI50: > 20 µM (inactive)
[48]
  GI50: > 20 µM (inactive)
[50]
  GI50: 11.9 µM (inactive)
[51]
  GI50: > 20 µM (inactive)
[52]
  GI50: 10.9 µM (inactive)
[53]
  GI50: 6.17 µM (inactive)
[54]
  GI50: 7.83 µM (inactive)
[55]
  GI50: 9.77 µM (inactive)
[56]
  GI50: > 20 µM (inactive)
[57]
  GI50: 14.6 µM (inactive)
[58]
  GI50: 11.2 µM (inactive)
[59]
  GI50: > 20 µM (inactive)

## CC(C)(C)c1cc(C2=NN(c3ccccc3)C(c3ccccc3)C2)cc(C(C)(C)C)c1O (configuration not stated)
[2]
  GI50: 35.2 µM (inactive)
[3]
  GI50: > 100 µM (inactive)
[4]
  GI50: > 100 µM (inactive)
[5]
  GI50: > 100 µM (inactive)
[6]
  GI50: > 100 µM (inactive)
[7]
  GI50: > 100 µM (inactive)
[8]
  GI50: > 100 µM
[9]
  GI50: > 100 µM (inactive)
[10]
  GI50: > 100 µM (inactive)
[11]
  GI50: > 100 µM (inactive)
[12]
  GI50: 31.5 µM (inactive)
[13]
  GI50: 93.5 µM (inactive)
[14]
  GI50: > 100 µM (inactive)
[15]
  GI50: > 100 µM (inactive)
[16]
  GI50: > 100 µM (inactive)
[17]
  GI50: > 100 µM (inactive)
[18]
  GI50: 29.3 µM (inactive)
[19]
  GI50: > 100 µM (inactive)
[20]
  GI50: > 100 µM (inactive)
[21]
  GI50: > 100 µM (inactive)
[22]
  GI50: > 100 µM (inactive)
[23]
  GI50: > 100 µM (inactive)
[24]
  GI50: > 100 µM (inactive)
[25]
  GI50: > 100 µM (inactive)
[26]
  GI50: > 100 µM (inactive)
[27]
  GI50: > 100 µM (inactive)
[28]
  GI50: > 100 µM (inactive)
[29]
  GI50: > 100 µM (inactive)
[30]
  GI50: > 100 µM (inactive)
[31]
  GI50: > 100 µM (inactive)
[32]
  GI50: > 100 µM (inactive)
[33]
  GI50: > 100 µM (inactive)
[34]
  GI50: 35.7 µM (inactive)
[35]
  GI50: > 100 µM (inactive)
[36]
  GI50: 12.1 µM (inactive)
[37]
  GI50: > 100 µM (inactive)
[38]
  GI50: > 100 µM (inactive)
[39]
  GI50: > 100 µM (inactive)
[40]
  GI50: > 100 µM (inactive)
[41]
  GI50: > 100 µM (inactive)
[42]
  GI50: > 100 µM (inactive)
[43]
  GI50: > 100 µM (inactive)
[44]
  GI50: > 100 µM (inactive)
[45]
  GI50: > 100 µM (inactive)
[46]
  GI50: > 100 µM (inactive)
[47]
  GI50: > 100 µM (inactive)
[48]
  GI50: > 100 µM (inactive)
[49]
  GI50: > 100 µM (inactive)
[50]
  GI50: > 100 µM (inactive)
[51]
  GI50: > 100 µM (inactive)
[52]
  GI50: > 100 µM (inactive)
[53]
  GI50: > 100 µM (inactive)
[54]
  GI50: > 100 µM (inactive)
[55]
  GI50: > 100 µM (inactive)
[56]
  GI50: > 100 µM (inactive)
[57]
  GI50: 54.8 µM (inactive)
[58]
  GI50: 19.1 µM (inactive)
[59]
  GI50: > 100 µM (inactive)
